Data published in PubChem BioAssay (NCI).
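In this assay, cells in 96-well plates receive the compound at five concentrations for 48 hours. Endpoints are linearly interpolated between the surrounding concentrations. TGI: concentration producing complete growth inhibition.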

Columns and labels:
Assay in all cases: growth of human tumour cells (NCI), 48 h
786-0 renal = tested on: 786-0 renal
ACHN renal = tested on: ACHN renal
OVCAR-8 ovarian = tested on: OVCAR-8 ovarian
KM12 colon = tested on: KM12 colon
T-47D breast = tested on: T-47D breast
UACC-62 melanoma = tested on: UACC-62 melanoma
SK-OV-3 ovarian = tested on: SK-OV-3 ovarian
MDA-N = tested on: MDA-N
MDA-MB-435 = tested on: MDA-MB-435
SNB-19 CNS = tested on: SNB-19 CNS
CCRF-CEM leukemia = tested on: CCRF-CEM leukemia
SNB-75 CNS = tested on: SNB-75 CNS
NCI-H226 lung = tested on: NCI-H226 lung
CAKI-1 renal = tested on: CAKI-1 renal
SK-MEL-28 melanoma = tested on: SK-MEL-28 melanoma
BT-549 breast = tested on: BT-549 breast
IGROV1 ovarian = tested on: IGROV1 ovarian
A498 renal = tested on: A498 renal
HOP-92 NSCLC = tested on: HOP-92 NSCLC
OVCAR-4 ovarian = tested on: OVCAR-4 ovarian
SK-MEL-5 melanoma = tested on: SK-MEL-5 melanoma
NCI-H460 lung = tested on: NCI-H460 lung
SN12C renal = tested on: SN12C renal
COLO 205 colon = tested on: COLO 205 colon
MDA-MB-231 breast = tested on: MDA-MB-231 breast
SR leukemia = tested on: SR leukemia
SW-620 colon = tested on: SW-620 colon
PC-3 prostate = tested on: PC-3 prostate
RPMI-8226 leukemia = tested on: RPMI-8226 leukemia
SF-539 CNS = tested on: SF-539 CNS
OVCAR-5 ovarian = tested on: OVCAR-5 ovarian
TK-10 renal = tested on: TK-10 renal
NCI-H23 lung = tested on: NCI-H23 lung
HCT-116 colon = tested on: HCT-116 colon
RXF 393 renal = tested on: RXF 393 renal
MCF7 breast = tested on: MCF7 breast
K-562 leukemia = tested on: K-562 leukemia
SF-295 CNS = tested on: SF-295 CNS
LOX IMVI melanoma = tested on: LOX IMVI melanoma
MOLT-4 leukemia = tested on: MOLT-4 leukemia
M14 melanoma = tested on: M14 melanoma
OVCAR-3 ovarian = tested on: OVCAR-3 ovarian
HOP-62 NSCLC = tested on: HOP-62 NSCLC
UACC-257 melanoma = tested on: UACC-257 melanoma
DU-145 prostate = tested on: DU-145 prostate
HCT-15 colon = tested on: HCT-15 colon
HT29 colon = tested on: HT29 colon
U251 CNS = tested on: U251 CNS
A549 NSCLC = tested on: A549 NSCLC
SK-MEL-2 melanoma = tested on: SK-MEL-2 melanoma
NCI/ADR-RES ovarian = tested on: NCI/ADR-RES ovarian
EKVX NSCLC = tested on: EKVX NSCLC
HL-60(TB) leukemia = tested on: HL-60(TB) leukemia
MALME-3M melanoma = tested on: MALME-3M melanoma
HCC-2998 colon = tested on: HCC-2998 colon
UO-31 renal = tested on: UO-31 renal
SF-268 CNS = tested on: SF-268 CNS

O=S(=O)(O)c1cc(N=Nc2cccc3ccccc23)c(O)c2ncccc12
TGI (786-0 renal): > 100 µM | TGI (ACHN renal): > 100 µM | TGI (OVCAR-8 ovarian): > 100 µM | TGI (KM12 colon): > 100 µM | TGI (T-47D breast): > 100 µM | TGI (UACC-62 melanoma): > 100 µM | TGI (SK-OV-3 ovarian): > 100 µM | TGI (MDA-N): > 100 µM | TGI (MDA-MB-435): > 100 µM | TGI (SNB-19 CNS): > 100 µM | TGI (CCRF-CEM leukemia): > 100 µM | TGI (SNB-75 CNS): > 100 µM | TGI (NCI-H226 lung): 85.8 µM | TGI (CAKI-1 renal): > 100 µM | TGI (SK-MEL-28 melanoma): > 100 µM | TGI (BT-549 breast): > 100 µM | TGI (IGROV1 ovarian): > 100 µM | TGI (A498 renal): > 100 µM | TGI (HOP-92 NSCLC): > 100 µM | TGI (OVCAR-4 ovarian): > 100 µM | TGI (SK-MEL-5 melanoma): > 100 µM | TGI (NCI-H460 lung): 69.4 µM | TGI (SN12C renal): > 100 µM | TGI (COLO 205 colon): > 100 µM | TGI (MDA-MB-231 breast): > 100 µM | TGI (SR leukemia): 65.7 µM | TGI (SW-620 colon): > 100 µM | TGI (PC-3 prostate): > 100 µM | TGI (RPMI-8226 leukemia): > 100 µM | TGI (SF-539 CNS): > 100 µM | TGI (OVCAR-5 ovarian): > 100 µM | TGI (TK-10 renal): > 100 µM | TGI (NCI-H23 lung): > 100 µM | TGI (HCT-116 colon): > 100 µM | TGI (RXF 393 renal): > 100 µM | TGI (MCF7 breast): > 100 µM | TGI (K-562 leukemia): > 100 µM | TGI (SF-295 CNS): > 100 µM | TGI (LOX IMVI melanoma): > 100 µM | TGI (MOLT-4 leukemia): > 100 µM | TGI (M14 melanoma): > 100 µM | TGI (OVCAR-3 ovarian): > 100 µM | TGI (HOP-62 NSCLC): > 100 µM | TGI (UACC-257 melanoma): > 100 µM | TGI (DU-145 prostate): > 100 µM | TGI (HCT-15 colon): > 100 µM | TGI (HT29 colon): 83.5 µM | TGI (U251 CNS): > 100 µM | TGI (A549 NSCLC): > 100 µM | TGI (SK-MEL-2 melanoma): > 100 µM | TGI (NCI/ADR-RES ovarian): > 100 µM | TGI (EKVX NSCLC): > 100 µM | TGI (HL-60(TB) leukemia): > 100 µM

C[C@]12CCC3c4ccc(O)cc4CC[C@H]3C1CC(=O)NC2=O (some centres not stated)
TGI (786-0 renal): > 10 µM | TGI (ACHN renal): > 10 µM | TGI (OVCAR-8 ovarian): > 10 µM | TGI (KM12 colon): > 10 µM | TGI (MALME-3M melanoma): > 10 µM | TGI (T-47D breast): > 10 µM | TGI (SK-OV-3 ovarian): > 10 µM | TGI (MDA-N): > 10 µM | TGI (MDA-MB-435): > 10 µM | TGI (SNB-19 CNS): > 10 µM | TGI (CCRF-CEM leukemia): > 10 µM | TGI (NCI-H226 lung): > 10 µM | TGI (CAKI-1 renal): > 10 µM | TGI (SK-MEL-28 melanoma): > 10 µM | TGI (BT-549 breast): > 10 µM | TGI (IGROV1 ovarian): > 10 µM | TGI (A498 renal): > 10 µM | TGI (HOP-92 NSCLC): > 10 µM | TGI (OVCAR-4 ovarian): > 10 µM | TGI (SK-MEL-5 melanoma): > 10 µM | TGI (NCI-H460 lung): > 10 µM | TGI (SN12C renal): > 10 µM | TGI (COLO 205 colon): > 10 µM | TGI (MDA-MB-231 breast): > 10 µM | TGI (SR leukemia): > 10 µM | TGI (SW-620 colon): > 10 µM | TGI (PC-3 prostate): > 10 µM | TGI (RPMI-8226 leukemia): > 10 µM | TGI (SF-539 CNS): > 10 µM | TGI (OVCAR-5 ovarian): > 10 µM | TGI (TK-10 renal): > 10 µM | TGI (NCI-H23 lung): > 10 µM | TGI (HCT-116 colon): > 10 µM | TGI (RXF 393 renal): > 10 µM | TGI (MCF7 breast): > 10 µM | TGI (K-562 leukemia): > 10 µM | TGI (SF-295 CNS): > 10 µM | TGI (LOX IMVI melanoma): > 10 µM | TGI (MOLT-4 leukemia): > 10 µM | TGI (M14 melanoma): > 10 µM | TGI (OVCAR-3 ovarian): > 10 µM | TGI (HCC-2998 colon): > 10 µM | TGI (UO-31 renal): > 10 µM | TGI (SF-268 CNS): > 10 µM | TGI (HOP-62 NSCLC): > 10 µM | TGI (UACC-257 melanoma): > 10 µM | TGI (DU-145 prostate): > 10 µM | TGI (HCT-15 colon): > 10 µM | TGI (HT29 colon): > 10 µM | TGI (U251 CNS): > 10 µM | TGI (A549 NSCLC): > 10 µM | TGI (SK-MEL-2 melanoma): > 10 µM | TGI (NCI/ADR-RES ovarian): > 10 µM | TGI (HL-60(TB) leukemia): > 10 µM
